Test results taken from ChEMBL document CHEMBL3507680, “University of Dundee, Gates Library screen for HepG2 cell viability”.

experiment: Human HepG2 cell viability assay in 384 well format; format: toxicity, cell-based; set-up: dose 125 nL, time 70.5 hour; cytotoxicity at 70.5 h: concentration not given beside the values; conditions: HepG2 cells, read-out: Inhibition

Compound | cytotoxicity at 70.5 h
c1ccc(-c2nnc3n2CCN(c2nc(C4CC4)ns2)C3)cc1 | -8%
Cn1nc(C(=O)NCc2ccc(F)cc2)c2c1CCS(=O)(=O)C2 | -6.3%
CC(C)c1nnc(NC(=O)C2CSCN2C(=O)C2CCC2)s1 (stereo not drawn) | -8.18%
CNS(=O)(=O)c1ccc(CNC(=O)Nc2ccccn2)s1 | 3.18%
Cn1ncc2c(N3CCC(CCO)CC3)nc(C(C)(C)C)nc21 | -2.67%
O=C(CCNC(=O)NC1CC1)NCc1ccccc1 | -6.54%
N#CCCN(CCC#N)C(=O)CN(C1CC1)C1CCc2ccccc21 (stereo not drawn) | -2.92%
Cc1nc(C)n(CC2CCCCN2Cc2nc(-c3ccco3)no2)n1 (stereo not drawn) | -5.26%
O=C1COC2(CCN(c3cccc(F)c3)CC2)CN1Cc1ccccn1 | 0.382%
Cn1cc(C(=O)N2CCN(c3ccc(F)cc3)CC2)ccc1=O | 2.77%
Cc1ncsc1CN1CC[C@H]2C(=O)N(c3ccccc3)CCO[C@H]2C1 | -9.01%
CC(C)c1cc(C(=O)N2CCN(c3ccncc3)CC2)n(C)n1 | -11.9%
CC(C)(C)CC(NC(=O)c1nc(=O)[nH][nH]1)c1ccc(F)cc1 (stereo not drawn) | -3.76%
C=C(C)COc1cccc(C(=O)N(C)C(C)c2c(C)n[nH]c2C)c1 (stereo not drawn) | -4.42%
Cc1cnc(C)c(Oc2ccc(CN3CCCC3)cc2Cl)n1 | -4.06%
CN(C)S(=O)(=O)N1CC[C@]2(O)CCN(Cc3cccc(C#N)c3)C[C@@H]2C1 | 9.63%
Cc1ccc(Oc2cc(F)ccc2O[C@@H]2CCC[C@@H](N)[C@H]2O)cc1 | 16%
COc1ccc(Cl)cc1CS(=O)(=O)Cc1noc(C)n1 | 12.6%
CC(C)N1CCC(c2cnc(-c3cncnc3)cn2)CC1 | 21.3%
Cc1cc(C(O)CCNC(=O)COc2ccccc2C)c(C)o1 (stereo not drawn) | -2.27%
O=C(NCc1ccccc1Cl)c1[nH]nc2c1CS(=O)(=O)CC2 | -5.21%
CCN1CCC(CC(=O)N(C)C(C)c2cncs2)CC1 (stereo not drawn) | -1.72%
COc1cccc(-n2cc(-c3ccnc(N[C@H](CO)C(C)C)n3)cn2)c1 | -2.44%

Compound | cytotoxicity at 70.5 h
CN(C)c1ccc2c(c1)CN(C(=O)c1ccco1)C2c1cnco1 (stereo not drawn) | 32.5%
COCC1Cn2nnc(-c3cnn(C)c3)c2CN1Cc1ccc(C)o1 (stereo not drawn) | -12.2%
Cc1cc(N2CCC(c3n[nH]c4nccnc34)C2)ncn1 (stereo not drawn) | 19.2%
CC(=O)N1CCn2cc(CNC(=O)c3cccn3C)nc2C1 | -10.7%
CN(Cc1ccc(F)cc1C#N)CC(F)(F)F | 17.4%
Cc1ccc(CN2CCc3ncc(CNS(C)(=O)=O)n3CC2)o1 | -12.4%
O=C(CCc1ccco1)N1CCC(Nc2cccnn2)CC1 | 1.07%
Cc1ccc2nc(C(=O)N3CC(c4cccnc4)C3)cn2c1 | -6.09%
COC(=O)N1CCC(Nc2cccc(F)c2C(C)=O)C1 (stereo not drawn) | -9.32%
NC(=O)N1CC[C@@H]2O[C@@H](COCC(=O)N3CCCC3)CC[C@@H]21 | 24%
O=C(CN1CCCCC1Cn1cncn1)NCCc1ccc(F)cc1 (stereo not drawn) | 32.1%
COc1c(C)cnc(CN2CCCC(c3noc(C4CC4)n3)C2)c1C (stereo not drawn) | 7.81%
CCOc1ccccc1CSCCn1nc2ccccn2c1=O | -10.1%
CCc1[nH]c2c(CNc3cncc(C(=O)OC)n3)cc(C)cc2c1C | 20.4%
CNC(=O)Cc1ccc(NC(=O)NCc2ncc(C)s2)cc1 | 8.85%
Cc1ccc(CNC(=O)CCN2CCOC(C(F)(F)F)C2)cc1 (stereo not drawn) | -2.06%
CS(=O)(=O)N(Cc1ccon1)c1cccc(Br)c1 | -1.5%
Cc1noc([C@]23COC[C@H]2CN(C(=O)C2CCOCC2)C3)n1 | -4.92%
COCCOCC(=O)N(Cc1cccc(C)c1)C(C)C | 3.91%
C[C@]1(O)CCN(Cc2ncccc2F)C[C@@H]1Oc1ccccc1 | -6.62%
Cc1nn(C)c(C)c1C1CCCN1c1ncnc2[nH]ccc12 (stereo not drawn) | 0.0825%
Cc1nn(C)c(C)c1-c1ccnc(N(C)Cc2nc(C(C)C)no2)n1 | 3.94%
Cc1nc(CN2C(=O)CCC23CCN(Cc2ccoc2)CC3)cs1 | -4.67%

Compound | cytotoxicity at 70.5 h
COc1cc2c(cc1CN1CCc3sccc3C1C)OCO2 (stereo not drawn) | 2.98%
O=C(c1ccc(NC2CC2)nc1)N1CCCC(n2cccn2)C1 (stereo not drawn) | -4.81%
Cc1ncc(CNC(=O)N(C)C2CCN(c3ccccc3)C2=O)s1 (stereo not drawn) | 3.88%
CCCN(C)S(=O)(=O)NC(=O)c1ccc(CC)o1 | 0.645%
CCc1noc(CN(CC)C(=O)c2ccc3ncsc3c2)n1 | 4.54%
CC(C)Oc1cccc(F)c1C(C(=O)O)N1CCCC1 (stereo not drawn) | -11.9%
CNC(=O)c1ccc2c(c1)C1(CCN(C(C)C)CC1)C(=O)N2 | 2.6%
CCOCCOC(C)C(=O)Nc1ccc2ccn(CCN(C)C)c2c1 (stereo not drawn) | -1.63%
CCOc1cc(C(=O)N2CC=C(c3ccc(O)cc3)CC2)ccn1 | -14.3%
O=C(CC1CCc2ccccc21)N1CCC(O)(c2cccnc2)CC1 (stereo not drawn) | -9.82%
Cc1nc(N(C)C)cc(C2(C)CCNCC2)n1 | -1.8%
Cc1cc(CN2C[C@H](OCC3CCOCC3)[C@H]3COC[C@H]32)oc1C | -0.082%
CN(C(=O)Nc1ccccn1)C1CCCN(c2ccccc2)C1=O (stereo not drawn) | 3.77%
CCc1nnc(CS(=O)(=O)c2ccc(C)cc2)n1C | -0.707%
CN(Cc1ccco1)[C@@H]1CN(CC2CCOCC2)C[C@@H]2CCCO[C@@H]21 | 4.38%
Cc1noc(C)c1-c1ccc(C2CCCN2C(=O)Cn2ccnc2)nc1 (stereo not drawn) | 15.1%
c1cnc2c(c1)cc([C@H]1CCCO1)n2CCN1CCCCC1 | 20.3%
CN(C)C(=O)CN1CCC(c2nnc(Cn3cccn3)n2C2CC2)CC1 | -12%
Cn1cc(CN(Cc2ccccn2)Cc2ccccc2Cl)cn1 | -1.3%
CCC1c2ccsc2CCN1C(=O)NCCc1ccccn1 (stereo not drawn) | -9.75%
O=C(c1cscn1)N1CCC2(CC1)CCN(S(=O)(=O)c1ccccc1)C2 | -8.17%
CN1CCCC2(CCN(S(=O)(=O)c3c(Cl)nc4sccn34)C2)C1=O (stereo not drawn) | -5.17%
CCN1CCOCC12CCN(c1ccc(C#N)cc1)CC2 | -6.86%

Compound | cytotoxicity at 70.5 h
CN(c1nccc(-c2cnc3sccn3c2=O)n1)C1CCCCC1 | -3.44%
Cc1c(C(=O)N2C[C@@H](CN(C)CCO)[C@@H](CO)C2)sc2ccccc12 | -9.44%
CCS(=O)(=O)N1CCCC2(CCCC(=O)N2C)C1 (stereo not drawn) | -9.96%
COCCC(=O)N1CCN(C)c2ncccc2C1 | -6.73%
O=C(CCc1nccs1)N1CCN(c2nccs2)CC1 | -7.6%
O[C@H]1[C@H](n2cc(-c3cncnc3)nn2)c2ccccc2C12CCNCC2 | -5.02%
CCc1noc(CN(C)C(=O)c2ccnc(OC3CCC3)c2)n1 | -0.589%
CC(c1ccncc1)N(C)C(=O)NCCOc1ccc(C#N)cc1 (stereo not drawn) | 16.9%
COc1cccc(C(O)CN2CCN(c3cccc(C)c3)CC2)c1 (stereo not drawn) | 0.851%
CCc1oc(C(=O)N[C@@H]2c3ccccc3C[C@@H]2O)cc1C | -5.26%
COc1ccsc1C(=O)Nc1cc(CN2CCOCC2)ccc1C | 0.784%
O=C([C@H]1COC[C@H]2CN(C3CCCC3)C[C@H]21)N1CCCCO1 | -12.7%
COc1cccc(Cc2nc3c([nH]2)CC(C)(C)CNC3=O)c1OC | -1.08%
CN(C)S(=O)(=O)c1ccc2c(c1)N(Cc1nccn1C)CC2 | -3.03%
O=C(c1ccsc1)N1CCc2onc(COc3ccccn3)c2C1 | -1.49%
Fc1cc(CNCCn2cccn2)ccc1-n1cncn1 | 1.79%
Cc1ncsc1C(=O)N(Cc1cccs1)C1CC1 | -16.1%
O=C1CCC2(CCNCC2)CN1Cc1nncn1CCc1ccccc1 | -8.25%
CNC(=O)c1cccc(C2CNCCN2C(=O)c2cccc(F)c2)c1 (stereo not drawn) | 25%
CCCS(=O)(=O)N1CCC(NCc2c(C)nn(C)c2OC)CC1 | -7.02%
O=C1NCCN1C1CCN(Cc2ccccn2)CC1 | -5.43%
COc1ccc(-c2ccoc2)cc1CNC1CCCC1 | 10.7%
CC(C)CN(CC(=O)O)C(=O)c1ccc(F)cc1 | 4.28%

Compound | cytotoxicity at 70.5 h
Cc1cc(C(=O)N(CC(F)(F)F)C2CCOCC2)c(C)o1 | -7.23%
COCCN1CCC(NCc2ccc(C#N)cc2)C1 (stereo not drawn) | 34.1%
CC(C)CNC(=O)C1(Cc2ccccc2-c2ccccc2)CCNC1 (stereo not drawn) | -3.17%
Cc1ccc(C)c(C(=O)N2CCC3(CCC(=O)N(CC(N)=O)C3)CC2)c1 | 29.9%
Cc1nc(Cn2cc(C#N)c(=O)c3ccccc32)no1 | -5.75%
O=C(NCCCn1cccn1)c1nc2ccccc2[nH]1 | -10.1%
CCOC(=O)C1(Cc2cccc(OC)c2)CCN(Cc2ccon2)CC1 | -11.6%
COc1cc(N2CCc3ncnc(-c4ccncc4)c3CC2)ncn1 | -6.14%
Cc1n[nH]c(C2CN(C(=O)c3cc(C4CC4)[nH]n3)CCO2)n1 (stereo not drawn) | 4.51%
CCOCC(=O)NCC(C)(O)c1cc(C)oc1C (stereo not drawn) | -0.44%
CC(C)=CCN1CCN(C(C)c2cccnc2)CC1 (stereo not drawn) | -1.42%
CC(=O)Nc1ccc(CNCC(O)c2ccc(Cl)cc2)cc1 (stereo not drawn) | -5.19%
CC1=N[C@@]2(CC[C@@H]3CN(Cc4ccccc4C)C[C@@H]32)C(=O)N1CC1CC1 | -9.24%
Cc1ccc(N2CCO[C@H]3CN(C(=O)c4cccc(C)n4)C[C@H]32)nn1 | -9.8%
c1cnc2c(c1)cc([C@H]1CCCO1)n2CCN1CCCC1 | -1.04%
Cc1cc(C(F)(F)F)nn1C(C)C(=O)NN1CCOCC1 (stereo not drawn) | -7.56%
Cc1nc2c(c(NC3CC3)n1)CCN(C(=O)CCc1cccnc1)CC2 | 12.4%
CC1CN=C(N2CCN(C(=O)Nc3nc(-c4ccccc4)ns3)CC2)S1 (stereo not drawn) | 9.01%
C[C@]1(O)CN(CC(=O)N2CCCC2)CC[C@@H]1Oc1cccc(F)c1 | 17.5%
CN1CCOC(CNCC(=O)NCCCc2ccccc2)C1 (stereo not drawn) | 4.87%
Cn1cc(-c2ncc3c(c2C(=O)O)CCN(Cc2ccco2)C3)cn1 | -5.93%
